Assay results: PubChem BioAssay (NCI)
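The compound was tested at five concentrations on cells cultured in 96-well plates, with a 48-hour exposure period. GI50: concentration for 50% inhibition of growth. TGI marks complete inhibition of growth.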

Key:
Assay in all cases: inhibition of tumour cell growth, NCI panel, 48 h
K-562 leukemia = system: K-562 leukemia
HS 578T breast = system: HS 578T breast
CCRF-CEM leukemia = system: CCRF-CEM leukemia
RPMI-8226 leukemia = system: RPMI-8226 leukemia
LOX IMVI melanoma = system: LOX IMVI melanoma
MOLT-4 leukemia = system: MOLT-4 leukemia
OVCAR-4 ovarian = system: OVCAR-4 ovarian
SN12C renal = system: SN12C renal
SW-620 colon = system: SW-620 colon
A498 renal = system: A498 renal
BT-549 breast = system: BT-549 breast
KM12 colon = system: KM12 colon
MALME-3M melanoma = system: MALME-3M melanoma
PC-3 prostate = system: PC-3 prostate
SF-295 CNS = system: SF-295 CNS
786-0 renal = system: 786-0 renal
M14 melanoma = system: M14 melanoma
SK-MEL-5 melanoma = system: SK-MEL-5 melanoma
NCI/ADR-RES ovarian = system: NCI/ADR-RES ovarian
HOP-62 NSCLC = system: HOP-62 NSCLC
COLO 205 colon = system: COLO 205 colon
NCI-H460 lung = system: NCI-H460 lung
RXF 393 renal = system: RXF 393 renal
NCI-H522 lung = system: NCI-H522 lung
OVCAR-5 ovarian = system: OVCAR-5 ovarian
TK-10 renal = system: TK-10 renal
HL-60(TB) leukemia = system: HL-60(TB) leukemia
SK-MEL-2 melanoma = system: SK-MEL-2 melanoma
SK-OV-3 ovarian = system: SK-OV-3 ovarian
HCT-116 colon = system: HCT-116 colon
HT29 colon = system: HT29 colon
HCC-2998 colon = system: HCC-2998 colon
OVCAR-8 ovarian = system: OVCAR-8 ovarian
DU-145 prostate = system: DU-145 prostate
NCI-H226 lung = system: NCI-H226 lung
OVCAR-3 ovarian = system: OVCAR-3 ovarian
SNB-19 CNS = system: SNB-19 CNS
U251 CNS = system: U251 CNS
SF-268 CNS = system: SF-268 CNS
NCI-H23 lung = system: NCI-H23 lung
UACC-257 melanoma = system: UACC-257 melanoma
EKVX NSCLC = system: EKVX NSCLC
MDA-MB-231 breast = system: MDA-MB-231 breast
CAKI-1 renal = system: CAKI-1 renal
SF-539 CNS = system: SF-539 CNS
SR leukemia = system: SR leukemia
HCT-15 colon = system: HCT-15 colon
SNB-75 CNS = system: SNB-75 CNS
UO-31 renal = system: UO-31 renal
IGROV1 ovarian = system: IGROV1 ovarian
MCF7 breast = system: MCF7 breast
UACC-62 melanoma = system: UACC-62 melanoma
SK-MEL-28 melanoma = system: SK-MEL-28 melanoma
A549 NSCLC = system: A549 NSCLC
HOP-92 NSCLC = system: HOP-92 NSCLC
ACHN renal = system: ACHN renal

C#Cc1ccc(-n2c(/C=C/c3ccc(Cl)c(F)c3)nc3ncccc3c2=O)cc1
GI50 (K-562 leukemia): 337 nM | TGI (K-562 leukemia): > 100 µM | GI50 (HS 578T breast): 419 nM | TGI (HS 578T breast): > 100 µM | GI50 (CCRF-CEM leukemia): 290 nM | TGI (CCRF-CEM leukemia): > 100 µM | GI50 (RPMI-8226 leukemia): 351 nM | TGI (RPMI-8226 leukemia): 2030 nM | GI50 (LOX IMVI melanoma): 183 nM | TGI (LOX IMVI melanoma): 504 nM | GI50 (MOLT-4 leukemia): 546 nM | TGI (MOLT-4 leukemia): > 100 µM | GI50 (OVCAR-4 ovarian): 270 nM | TGI (OVCAR-4 ovarian): 1030 nM

COc1ccc(C(=O)Nc2ncc(Cc3ccc(Cl)cc3)s2)cc1
GI50 (SN12C renal): 94.6 nM | TGI (SN12C renal): > 100 µM | GI50 (SW-620 colon): 45.5 nM | TGI (SW-620 colon): > 100 µM | GI50 (K-562 leukemia): 41 nM | TGI (K-562 leukemia): > 100 µM | GI50 (HS 578T breast): 40.7 nM | TGI (HS 578T breast): > 77 µM | GI50 (A498 renal): 21.6 nM | TGI (A498 renal): 84.8 nM | GI50 (BT-549 breast): 1000 nM | TGI (BT-549 breast): > 100 µM | GI50 (KM12 colon): 37.3 nM | TGI (KM12 colon): > 37.1 µM | GI50 (MALME-3M melanoma): 87 nM | TGI (MALME-3M melanoma): > 100 µM | GI50 (PC-3 prostate): 52.8 nM | TGI (PC-3 prostate): > 100 µM | GI50 (SF-295 CNS): 56.1 nM | TGI (SF-295 CNS): 1970 nM | GI50 (786-0 renal): 77.9 nM | TGI (786-0 renal): > 100 µM | GI50 (M14 melanoma): 42.2 nM | TGI (M14 melanoma): > 100 µM | GI50 (SK-MEL-5 melanoma): 41.9 nM | TGI (SK-MEL-5 melanoma): 2830 nM | GI50 (CCRF-CEM leukemia): 46 nM | TGI (CCRF-CEM leukemia): > 100 µM | GI50 (NCI/ADR-RES ovarian): 45.7 nM | GI50 (HOP-62 NSCLC): 98.4 nM | TGI (HOP-62 NSCLC): > 83.4 µM | GI50 (COLO 205 colon): 53.3 nM | TGI (COLO 205 colon): 2290 nM | GI50 (RPMI-8226 leukemia): 37.5 nM | GI50 (NCI-H460 lung): 40.6 nM | TGI (NCI-H460 lung): > 100 µM | GI50 (RXF 393 renal): 48 nM | TGI (RXF 393 renal): 927 nM | GI50 (NCI-H522 lung): 57.3 nM | TGI (NCI-H522 lung): > 37.8 µM | GI50 (OVCAR-5 ovarian): 247 nM | TGI (OVCAR-5 ovarian): > 100 µM | GI50 (TK-10 renal): 3.94 µM | TGI (TK-10 renal): > 100 µM | GI50 (LOX IMVI melanoma): 62.8 nM | TGI (LOX IMVI melanoma): > 100000 nM | GI50 (HL-60(TB) leukemia): 34.7 nM | GI50 (SK-MEL-2 melanoma): 532 nM | TGI (SK-MEL-2 melanoma): > 100 µM | GI50 (SK-OV-3 ovarian): 150 nM | TGI (SK-OV-3 ovarian): > 100 µM | GI50 (HCT-116 colon): 50.9 nM | TGI (HCT-116 colon): > 100 µM | GI50 (HT29 colon): 39.6 nM | TGI (HT29 colon): > 100 µM | GI50 (HCC-2998 colon): 166 nM | TGI (HCC-2998 colon): 12.7 µM | GI50 (OVCAR-8 ovarian): 117 nM | TGI (OVCAR-8 ovarian): > 100 µM | GI50 (DU-145 prostate): 104 nM | TGI (DU-145 prostate): > 100 µM | GI50 (NCI-H226 lung): 77.1 nM | TGI (NCI-H226 lung): > 64.3 µM | GI50 (OVCAR-3 ovarian): 32.7 nM | TGI (OVCAR-3 ovarian): 159 nM | GI50 (SNB-19 CNS): 89.7 nM | TGI (SNB-19 CNS): > 100 µM | GI50 (U251 CNS): 69.1 nM | TGI (U251 CNS): > 100 µM | GI50 (SF-268 CNS): 300 nM | TGI (SF-268 CNS): > 100 µM | GI50 (NCI-H23 lung): 239 nM | TGI (NCI-H23 lung): > 100 µM | GI50 (MOLT-4 leukemia): 64 nM | TGI (MOLT-4 leukemia): > 100 µM | GI50 (UACC-257 melanoma): 20 µM | TGI (UACC-257 melanoma): > 100 µM | GI50 (EKVX NSCLC): 260 nM | TGI (EKVX NSCLC): > 100 µM | GI50 (MDA-MB-231 breast): 176 nM | TGI (MDA-MB-231 breast): 47.3 µM | GI50 (CAKI-1 renal): 47.1 nM | TGI (CAKI-1 renal): > 73.1 µM | GI50 (SF-539 CNS): 47 nM | TGI (SF-539 CNS): 516 nM | GI50 (SR leukemia): 37.5 nM | TGI (SR leukemia): > 70.4 µM | GI50 (HCT-15 colon): 44 nM | TGI (HCT-15 colon): > 100 µM | GI50 (SNB-75 CNS): 42.4 nM | TGI (SNB-75 CNS): > 100 µM | GI50 (UO-31 renal): 910 nM | TGI (UO-31 renal): > 100 µM | GI50 (IGROV1 ovarian): 82.5 nM | TGI (IGROV1 ovarian): > 100 µM | GI50 (MCF7 breast): 38.5 nM | TGI (MCF7 breast): > 100 µM | GI50 (UACC-62 melanoma): 47.5 nM | TGI (UACC-62 melanoma): > 100 µM | GI50 (OVCAR-4 ovarian): 2700 nM | TGI (OVCAR-4 ovarian): > 100000 nM | GI50 (SK-MEL-28 melanoma): 2120 nM | TGI (SK-MEL-28 melanoma): > 100 µM | GI50 (A549 NSCLC): 73.3 nM | TGI (A549 NSCLC): > 100 µM | GI50 (HOP-92 NSCLC): 3.71 µM | TGI (HOP-92 NSCLC): > 100 µM | GI50 (ACHN renal): 60.3 nM | TGI (ACHN renal): > 100 µM
